{"source": "patent US4017637A", "about": "“Benzylamine analgesics” (priority 1975, dated 1977)", "system": "rats", "test": "Analgesic activity in rats, light beam on tip of tail (modified D'Amour and Smith procedure)", "format": "in vivo, rat", "details": "for ED50: Rattus norvegicus", "procedure": "Rats weighing approximately 150 to 200 g. are placed in individual holders, and each holder in turn is situated so that a high intensity light beam shines on the tip of the tail. The intensity of the light beam is adjusted so that normal rats respond by moving their tails out of the light beam in 3 to 8 seconds. The average of two readings taken 20 minutes apart serves as a pre-drug control. Rats are selected for use whose control readings agree within 1 second. Compounds are administered and reaction times are measured every 20 minutes for 2 hours. Analgesic agents cause a significant increase in reaction time.", "note": "Counter-ions that a name gives are not always drawn."}
{"smiles": "CN(C)C(c1cccc(O)c1)[C@H]1CCCC[C@H]1O", "note": "(relative stereo) [1-cis-2-(α-dimethylamino-m-hydroxybenzyl)cyclohexanol]", "values": [{"measurement": "No. Rats Showing Analgesia/No. Rats Tested", "setting": "I.M., 0.41 mg/kg", "result": "4/10"}, {"measurement": "No. Rats Showing Analgesia/No. Rats Tested", "setting": "I.M., 0.62 mg/kg", "result": "7/10"}, {"measurement": "No. Rats Showing Analgesia/No. Rats Tested", "setting": "I.P., 3.12 mg/kg", "result": "8/10"}, {"measurement": "No. Rats Showing Analgesia/No. Rats Tested", "setting": "I.P., 6.25 mg/kg", "result": "6/10"}, {"measurement": "No. Rats Showing Analgesia/No. Rats Tested", "setting": "P.O., 3.12 mg/kg", "result": "5/10"}, {"measurement": "No. Rats Showing Analgesia/No. Rats Tested", "setting": "P.O., 6.25 mg/kg", "result": "7/10"}]}
{"smiles": "CCC(=O)O[C@@H]1CCCC[C@@H]1C(c1cccc(OC)c1)N(C)C.Cl", "note": "(relative stereo) [Cis-2-[α-Dimethylamino-m-Methoxybenzyl]Cyclohexanol Propionate, Hydrochloride]", "values": [{"measurement": "No. Rats Showing Analgesia/No. Rats Tested", "setting": "I.M., 15.0 mg/kg", "result": "3/10"}, {"measurement": "No. Rats Showing Analgesia/No. Rats Tested", "setting": "I.P., 12.5 mg/kg", "result": "3/5"}]}
{"smiles": "CN(C)C(c1ccccc1)[C@H]1CCCC[C@H]1O", "note": "(relative stereo) [Cis-2-[α-Dimethylaminobenzyl]-Cyclohexanol]", "values": [{"measurement": "No. Rats Showing Analgesia/No. Rats Tested", "setting": "I.M., 6.25 mg/kg", "result": "8/10"}, {"measurement": "No. Rats Showing Analgesia/No. Rats Tested", "setting": "I.P., 6.25 mg/kg", "result": "9/10"}, {"measurement": "No. Rats Showing Analgesia/No. Rats Tested", "setting": "I.P., 12.5 mg/kg", "result": "8/10"}, {"measurement": "No. Rats Showing Analgesia/No. Rats Tested", "setting": "P.O., 5.0 mg/kg", "result": "6/10"}]}
{"smiles": "COc1cccc(C([C@H]2CCCC[C@H]2O)N(C)C)c1", "note": "(relative stereo) [cis-2-(α-dimethylamino-m-methoxybenzyl)cyclohexanol]", "values": [{"measurement": "No. Rats Showing Analgesia/No. Rats Tested", "setting": "I.P., 25.0 mg/kg", "result": "3/5"}]}
{"smiles": "COCOc1cccc(C([C@H]2CCCC[C@H]2O)N(C)C)c1", "note": "(relative stereo) [cis-2-[α-dimethylamino-m-(methoxymethoxy)benzyl]cyclohexanol]", "values": [{"measurement": "No. Rats Showing Analgesia/No. Rats Tested", "setting": "I.M., 2.5 mg/kg", "result": "3/10"}, {"measurement": "No. Rats Showing Analgesia/No. Rats Tested", "setting": "I.M., 5.0 mg/kg", "result": "5/10"}, {"measurement": "No. Rats Showing Analgesia/No. Rats Tested", "setting": "I.P., 6.25 mg/kg", "result": "2/5"}, {"measurement": "No. Rats Showing Analgesia/No. Rats Tested", "setting": "I.P., 25.0 mg/kg", "result": "5/5"}]}
{"smiles": "CN(C)C(c1cccc(O)c1)[C@H]1CCCC[C@H]1O", "note": "(stereo partly drawn) [Cis-2-(α-Dimethylamino-m-Hydroxybenzyl) Cyclohexanol, Hydrochloride]", "values": [{"measurement": "No. Rats Showing Analgesia/No. Rats Tested", "setting": "I.M., 2.5 mg/kg", "result": "5/10"}, {"measurement": "No. Rats Showing Analgesia/No. Rats Tested", "setting": "I.P., 3.12 mg/kg", "result": "3/5"}, {"measurement": "No. Rats Showing Analgesia/No. Rats Tested", "setting": "I.P., 12.5 mg/kg", "result": "4/5"}, {"measurement": "No. Rats Showing Analgesia/No. Rats Tested", "setting": "P.O., 5.0 mg/kg", "result": "5/10"}]}
{"smiles": "CN1CC[C@]23c4c5ccc(O)c4O[C@H]2[C@@H](O)C=C[C@H]3[C@H]1C5", "note": "[morphine, reference compound]", "values": [{"measurement": "ED50", "setting": "im", "result": 2, "unit": "mg/kg"}, {"measurement": "ED50", "setting": "ip", "result": 3.5, "unit": "mg/kg"}, {"measurement": "ED50", "setting": "po", "result": 10, "unit": "mg/kg"}]}
